Reference: patent US6737383B1, “Herbicidal oxadiazolidines” (priority 1999, dated 2004)

Experiments:
duck salad = assay: Test B flood test duck salad; assay type: in vivo, Heteranthera limosa
Outline: (§1)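 Plants were grown to the 2-leaf stage before treatment with test chemical, then held in a greenhouse for twelve to sixteen days. Injury was visually rated against untreated controls on a 0–10 scale, where 0 is no effect and 10 is complete control.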

smallflower flatsedge = assay: Test B flood test smallflower flatsedge; assay type: in vivo, Cyperus difformis
Outline: as §1

crabgrass = assay: Test B pre/postemergence crabgrass; assay type: in vivo, Digitaria sanguinalis
Outline: (§2)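 Response is a visual 0-to-10 score relative to untreated plants, where 0 means no effect and 10 means complete control, taken twelve to sixteen days after application. Treatments went onto soil at planting and onto foliage of 1- to 4-leaf plants, using a surfactant-containing non-phytotoxic solvent.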

velvetleaf = assay: Test B pre/postemergence velvetleaf; assay type: in vivo, Abutilon theophrasti
Outline: as §2

sugar beet = assay: Test B pre/postemergence sugar beet; assay type: in vivo, Beta vulgaris
Outline: as §2

surinam grass = assay: Test B pre/postemergence surinam grass; assay type: in vivo, Brachiaria decumbens
Outline: as §2

cocklebur = assay: Test B pre/postemergence cocklebur; assay type: in vivo, Xanthium strumarium
Outline: as §2

morningglory = assay: Test B pre/postemergence morningglory; assay type: in vivo, Ipomoea hederacea
Outline: as §2

rice = assay: Test B flood test rice; assay type: in vivo, Oryza sativa
Outline: as §1

bamyardgrass = assay: Test B flood test barnyardgrass; assay type: in vivo, Echinochloa crus-galli
Outline: as §1

soybean = assay: Test B pre/postemergence soybean; assay type: in vivo, Glycine max
Outline: as §2

wild oat = assay: Test B pre/postemergence wild oat; assay type: in vivo, Avena fatua
Outline: as §2

corn = assay: Test B pre/postemergence corn; assay type: in vivo, Zea mays
Outline: as §2

pigweed = assay: Test B pre/postemergence pigweed; assay type: in vivo, Amaranthus retroflexus
Outline: as §2

rape = assay: Test B pre/postemergence rape; assay type: in vivo, Brassica napus
Outline: as §2

bedstraw = assay: Test B pre/postemergence bedstraw; assay type: in vivo, Galium aparine
Outline: as §2

[1] = Postemergence, Rate 62 g/ha, scale 0 to 10, 0 is no effect, 10 is complete control
[2] = Rate 125 g/ha, Postemergence section (flood test species), scale 0 to 10, 0 no effect, 10 complete control
[3] = Rate 500 g/ha, Postemergence section of Table B, 0 to 10 scale (0 no effect, 10 complete control)
[4] = flood test, listed under Postemergence, Rate 250 g/ha, scale 0 to 10, 0 no effect, 10 complete control
[5] = Postemergence, Rate 250 g/ha, scale 0 to 10, 0 no effect, 10 complete control
[6] = Preemergence, Rate 62 g/ha, scale 0 to 10, 0 is no effect, 10 is complete control
[7] = Preemergence, Rate 125 g/ha, scale 0 to 10 (0 no effect, 10 complete control)
[8] = Preemergence, Rate 500 g/ha, scale 0 (no effect) to 10 (complete control)
[9] = Rate 125 g/ha, Postemergence, scale 0 to 10, 0 no effect, 10 complete control
[10] = Rate 500 g/ha, Postemergence, 0 to 10 scale (0 no effect, 10 complete control)
[11] = Preemergence, Rate 250 g/ha, scale of 0 to 10 where 0 is no effect and 10 is complete control

CC(C)N(C(=O)n1oc(=O)n(-c2ccccc2C(F)(F)F)c1=O)c1ccc(F)cc1 [Compound 15]
Ducksalad plant response rating (duck salad; [1]): 0
Ducksalad plant response rating (duck salad; [2]): 0
Ducksalad plant response rating (duck salad; [3]): 0
Ducksalad plant response rating (duck salad; [4]): 0
S. Flatsedge plant response rating (smallflower flatsedge; [1]): 0
S. Flatsedge plant response rating (smallflower flatsedge; [2]): 0
S. Flatsedge plant response rating (smallflower flatsedge; [4]): 0
Crabgrass plant response rating (crabgrass; [1]): 0
Crabgrass plant response rating (crabgrass; [5]): 3
Plant response rating, Crabgrass (crabgrass; [6]): 0
Plant response rating, Crabgrass (crabgrass; [7]): 2
Crabgrass plant response rating (crabgrass; [8]): 10
Crabgrass plant response rating (crabgrass; [9]): 1
Crabgrass plant response rating (crabgrass; [10]): 8
Velvetleaf plant response rating (velvetleaf; [1]): 0
Velvetleaf plant response rating (velvetleaf; [5]): 0
Plant response rating, Velvetleaf (velvetleaf; [6]): 0
Plant response rating, Velvetleaf (velvetleaf; [7]): 0
Velvetleaf plant response rating (velvetleaf; [8]): 0
Velvetleaf plant response rating (velvetleaf; [9]): 0
Sugarbeets plant response rating (sugar beet; [1]): 0
Sugarbeets plant response rating (sugar beet; [5]): 0
Plant response rating, Sugarbeets (sugar beet; [6]): 0
Plant response rating, Sugarbeets (sugar beet; [7]): 0
Plant response rating, Sugarbeets (sugar beet; [11]): 3
Sugarbeets plant response rating (sugar beet; [8]): 6
Sugarbeets plant response rating (sugar beet; [9]): 0
B. signalgrass plant response rating (surinam grass; [1]): 0
B. signalgrass plant response rating (surinam grass; [5]): 0
Plant response rating, B. signalgrass (surinam grass; [6]): 0
Plant response rating, B. signalgrass (surinam grass; [7]): 0
Plant response rating, B. signalgrass (surinam grass; [11]): 0
B. signalgrass plant response rating (surinam grass; [8]): 0
B. signalgrass plant response rating (surinam grass; [9]): 0
B. signalgrass plant response rating (surinam grass; [10]): 0
Cocklebur plant response rating (cocklebur; [1]): 0
Cocklebur plant response rating (cocklebur; [5]): 5
Plant response rating, Cocklebur (cocklebur; [6]): 0
Plant response rating, Cocklebur (cocklebur; [7]): 0
Cocklebur plant response rating (cocklebur; [8]): 0
Cocklebur plant response rating (cocklebur; [9]): 0
Cocklebur plant response rating (cocklebur; [10]): 8
Morningglory plant response rating (morningglory; [1]): 2
Morningglory plant response rating (morningglory; [5]): 6
Plant response rating, Morningglory (morningglory; [6]): 0
Plant response rating, Morningglory (morningglory; [7]): 0
Morningglory plant response rating (morningglory; [8]): 0
Morningglory plant response rating (morningglory; [9]): 2
Morningglory plant response rating (morningglory; [10]): 7
Rice plant response rating (rice; [1]): 0
Rice plant response rating (rice; [2]): 0
Rice plant response rating (rice; [3]): 0
Rice plant response rating (rice; [4]): 0
Barnyardgrass plant response rating (bamyardgrass; [1]): 0
Barnyardgrass plant response rating (bamyardgrass; [2]): 0
Barnyardgrass plant response rating (bamyardgrass; [3]): 0
Barnyardgrass plant response rating (bamyardgrass; [4]): 0
Soybean plant response rating (soybean; [1]): 2
Soybean plant response rating (soybean; [5]): 2
Plant response rating, Soybean (soybean; [6]): 0
Plant response rating, Soybean (soybean; [7]): 0
Soybean plant response rating (soybean; [8]): 0
Soybean plant response rating (soybean; [9]): 2
Wild oats plant response rating (wild oat; [1]): 0
Wild oats plant response rating (wild oat; [5]): 0
Plant response rating, Wild oats (wild oat; [7]): 0
Plant response rating, Wild oats (wild oat; [11]): 0
Wild oats plant response rating (wild oat; [8]): 0
Wild oats plant response rating (wild oat; [9]): 0
Corn plant response rating (corn; [1]): 0
Corn plant response rating (corn; [5]): 0
Plant response rating, Corn (corn; [6]): 0
Plant response rating, Corn (corn; [7]): 0
Corn plant response rating (corn; [8]): 0
Corn plant response rating (corn; [9]): 0
Corn plant response rating (corn; [10]): 0
Redroot pigweed plant response rating (pigweed; [1]): 0
Redroot pigweed plant response rating (pigweed; [5]): 2
Plant response rating, Redroot pigweed (pigweed; [6]): 0
Plant response rating, Redroot pigweed (pigweed; [7]): 0
Plant response rating, Redroot pigweed (pigweed; [11]): 0
Redroot pigweed plant response rating (pigweed; [8]): 8
Redroot pigweed plant response rating (pigweed; [9]): 0
Redroot pigweed plant response rating (pigweed; [10]): 6
Rape plant response rating (rape; [1]): 0
Rape plant response rating (rape; [5]): 0
Plant response rating, Rape (rape; [6]): 0
Plant response rating, Rape (rape; [7]): 0
Plant response rating, Rape (rape; [11]): 0
Rape plant response rating (rape; [8]): 0
Rape plant response rating (rape; [9]): 0
Rape plant response rating (rape; [10]): 0
Bedstraw plant response rating (bedstraw; [1]): 0
Bedstraw plant response rating (bedstraw; [5]): 0
Plant response rating, Bedstraw (bedstraw; [6]): 0
Plant response rating, Bedstraw (bedstraw; [7]): 0
Plant response rating, Bedstraw (bedstraw; [11]): 0
Bedstraw plant response rating (bedstraw; [8]): 7
Bedstraw plant response rating (bedstraw; [9]): 0
Bedstraw plant response rating (bedstraw; [10]): 4
